In ChEMBL document CHEMBL1152832, “Quantitative structure-activity relationship (QSAR) of aryl alkenyl amides/imines for bacterial efflux pump inhibitors” (2009) one finds PF, logPF and MIC data, which are given here for 47 compounds.

Values after ≈ are worked out from the molar mass of the structure shown. Active and inactive are the calls of the source. No cut-off for these calls is given here.

One assay relates to Staphylococcus aureus. Briefly: Inhibition of multidrug resistance efflux pump in Staphylococcus aureus ATCC 29213 assessed as potentiation factor measured by reduction in weighted average of ciprofloxacin MIC by serial dilution method.
Settings: not given
On to `CC(/C=C/C(=O)N1CCCC1)=C\c1ccc2c(c1)OCO2` (stereo in doubt; 3), for which the PF was found to be 110 and the logPF worked out at 2.04.
In the case of `CCC(/C=C/C(=O)NCC(C)C)=C\c1ccc2c(c1)OCO2`, the PF came to 270 and the logPF was 2.43.
For `COc1ccc(/C=C(C)/C=C/C(=O)N2CCCCC2)cc1`, in that order: 130 and 2.11.
The like results for `CCC(/C=C/C(=O)N1CCCC1)=C\c1ccc2c(c1)OCO2` were, in that order, 90 and 1.95.
Turning to `CCCC(/C=C/C(=O)N1CCCCC1)=C\c1ccc(OC)cc1`, the PF is 210 and the logPF was determined as 2.32.
For `CC(/C=C/C(=O)NC(C)c1ccc(Br)cc1)=C\c1ccc2c(c1)OCO2` (stereo not drawn), in that order: 380 and 2.58.
Consider `CCC(/C=C/C(=O)NCC(=O)OC)=C\c1ccc2c(c1)OCO2`, for which the PF came to 290 and the logPF was found to be 2.46.
For `CC(/C=C/C(=O)N1CCCC1)=C\c1ccc2c(c1)OCO2` (stereo in doubt; 12), the PF is 130 and the logPF came to 2.11.
For `CCCC(/C=C/C(=O)N1CCN(C)CC1)=C\c1ccc(OC)cc1`, in that order: 130 and 2.11.
The like results for `CC(/C=C/C(=O)N1CCOCC1)=C\c1ccc2c(c1)OCO2` were, in that order, “inactive” and “inactive”.
On to `COC(=O)/C=C/C(C)=C/c1ccc2c(c1)OCO2`, for which the PF result was “inactive” and the logPF entry was “inactive”.
In the case of `CCOC(=O)/C=C/C(C)=C/c1ccc2c(c1)OCO2`, the PF result is “inactive” and the logPF entry was “inactive”.
As to `CCCCC(/C=N/O)=C\c1ccc(OC)cc1`, the PF is 100 and the logPF is 2.
With `CCC(/C=C/CN1CCCCC1)=C\c1ccc2c(c1)OCO2`, the PF amounted to 70 and the logPF is 1.85.
The like results for `CCC(CCC(=O)NCC(C)C)Cc1ccc2c(c1)OCO2` (stereo not drawn) were, in that order, 70 and 1.85.
As for `CCC(/C=C/C(=O)NC(C)C=O)=C\c1ccc2c(c1)OCO2` (stereo not drawn), the PF stood at 30 and the logPF is 1.48.
For `CC(/C=C/C(=O)N1CCN(C)CC1)=C\c1ccc2c(c1)OCO2`, in that order: 130 and 2.11.
For `CCCCC(/C=C/C(=O)N1CCCCC1)=C\c1ccc2c(c1)OCO2`, in that order: 200 and 2.3.
For `CCCC(/C=C/C(=O)O)=C\c1ccc2c(c1)OCO2`, in that order: “inactive” and “inactive”.
In the case of `CCC(/C=C/C(=O)N1CCCCC1)=C\c1ccc(OC)c(OC)c1`, the PF was 220 and the logPF stood at 2.34.
The like results for `CCC(/C=C/C(=O)N[C@@](C)(O)c1ccccc1)=C\c1ccc2c(c1)OCO2` were, in that order, 30 and 1.48.
`CCC(/C=C/C(=O)Nc1ccccc1OC)=C\c1ccc2c(c1)OCO2`: the PF amounted to 60 and the logPF was 1.78.
On to `CCCCC(/C=N/c1ccccc1C(=O)O)=C\c1ccc(OC)cc1`, for which the PF is 100 and the logPF was 2.
For the compound `COc1cc(/C=C(C)/C=C/C(=O)N2CCCCC2)ccc1O`, the PF stood at 10 and the logPF turned out to be 1.
For `CC(/C=C/C(=O)N1CCC(O)CC1)=C\c1ccc2c(c1)OCO2`, in that order: 210 and 2.32.
With `CCCC(/C=C/C(=O)N1CCN(C)CC1)=C\c1ccc2c(c1)OCO2`, the PF came out at 60 and the logPF turned out to be 1.78.
The like results for `CCCC(/C=C/C(=O)N1CCCCC1)=C\c1ccc2c(c1)OCO2` were, in that order, 210 and 2.32.
The like results for `CCC(/C=C/C(=O)N1CCC(O)CC1)=C\c1ccc2c(c1)OCO2` were, in that order, 210 and 2.32.
The like results for `CCC(/C=C/C(=O)N1CCCCC1)=C\c1ccc2c(c1)OCO2` were, in that order, 240 and 2.38.
In the case of `CCC(/C=C/C(=O)Nc1ccccc1C)=C\c1ccc2c(c1)OCO2`, the PF was found to be 60 and the logPF stood at 1.78.
For `C(/C=C/c1ccc2c(c1)OCO2)=C\CN1CCCCC1`, in that order: 30 and 1.48.
The like results for `CC(/C=C/C(=O)O)=C\c1ccc2c(c1)OCO2` were, in that order, 10 and 1.
For the compound `CC/C=C/C(=C/c1ccc2c(c1)OCO2)CC`, the PF was determined as 20 and the logPF was 1.3.
For the compound `O=C(/C=C/C=C/c1ccc2c(c1)OCCO2)N1CCOCC1`, the PF was found to be 40 and the logPF was 1.6.
For `CCC(CO)NC(=O)/C=C/C(C)=C/c1ccc2c(c1)OCO2` (stereo not drawn), in that order: 30 and 1.48.
Turning to `CCCCC(/C=N/C(CC)CO)=C\c1ccc(OC)cc1` (stereo not drawn), the PF came to 100 and the logPF is 2.
For `CCC(/C=C/C(=O)Nc1ccccc1)=C\c1ccccc1`, in that order: 210 and 2.32.
The like results for `CCCCCCC(/C=C/C(=O)N1CCCCC1)=C\c1ccc(OC)cc1` were, in that order, 130 and 2.11.
For `CCC(/C=N/C(CC)CO)=C\c1ccc2c(c1)OCO2` (stereo not drawn), in that order: 150 and 2.18.
As for `CCC(CCCC(=O)NCC(=O)NCC(=O)OC)Cc1ccc2c(c1)OCO2` (stereo not drawn), the PF is 70 and the logPF turned out to be 1.85.
The like results for `CCCCC(/C=C/C(=O)N1CCC(O)CC1)=C\c1ccc2c(c1)OCO2` were, in that order, 70 and 1.85.
For `CCC(/C=C/C(=O)N1CCN(C)CC1)=C\c1ccc2c(c1)OCO2`, in that order: 130 and 2.11.
For the compound `CC(=O)CNC(=O)CC(=O)/C=C/C(C)=C/c1ccc2c(c1)OCO2`, the PF worked out at 310 and the logPF is 2.49.
The like results for `CCC(/C=C/C(=O)O)=C\c1ccc2c(c1)OCO2` were, in that order, 10 and 1.
With `CC(/C=C/C(=O)N1CCCCC1)=C\c1ccc2c(c1)OCO2`, the PF is 180 and the logPF was 2.25.
For the compound `CCCCC(/C=C/C(=O)N1CCN(C)CC1)=C\c1ccc2c(c1)OCO2`, the PF worked out at 160 and the logPF amounted to 2.2.

In a further assay the test system is Staphylococcus aureus. The assay is described as follows: microbe, parasite or virus in culture. The conditions noted are these: ATCC 29213, 24 h.
Description: Antibacterial activity against Staphylococcus aureus ATCC 29213 after 24 hrs
Consider `O=C(O)c1cn(C2CC2)c2cc(N3CCNCC3)c(F)cc2c1=O` [CIPROFLOXACIN], for which the MIC is 0.25 µg/mL (≈ 0.754 µM).
